Assay [1] concerns the target T1, rabbit muscle glycogen phosphorylase b (rmGPb) (Oryctolagus cuniculus, UniProt P00489).
T1 sequence (P00489 1-843): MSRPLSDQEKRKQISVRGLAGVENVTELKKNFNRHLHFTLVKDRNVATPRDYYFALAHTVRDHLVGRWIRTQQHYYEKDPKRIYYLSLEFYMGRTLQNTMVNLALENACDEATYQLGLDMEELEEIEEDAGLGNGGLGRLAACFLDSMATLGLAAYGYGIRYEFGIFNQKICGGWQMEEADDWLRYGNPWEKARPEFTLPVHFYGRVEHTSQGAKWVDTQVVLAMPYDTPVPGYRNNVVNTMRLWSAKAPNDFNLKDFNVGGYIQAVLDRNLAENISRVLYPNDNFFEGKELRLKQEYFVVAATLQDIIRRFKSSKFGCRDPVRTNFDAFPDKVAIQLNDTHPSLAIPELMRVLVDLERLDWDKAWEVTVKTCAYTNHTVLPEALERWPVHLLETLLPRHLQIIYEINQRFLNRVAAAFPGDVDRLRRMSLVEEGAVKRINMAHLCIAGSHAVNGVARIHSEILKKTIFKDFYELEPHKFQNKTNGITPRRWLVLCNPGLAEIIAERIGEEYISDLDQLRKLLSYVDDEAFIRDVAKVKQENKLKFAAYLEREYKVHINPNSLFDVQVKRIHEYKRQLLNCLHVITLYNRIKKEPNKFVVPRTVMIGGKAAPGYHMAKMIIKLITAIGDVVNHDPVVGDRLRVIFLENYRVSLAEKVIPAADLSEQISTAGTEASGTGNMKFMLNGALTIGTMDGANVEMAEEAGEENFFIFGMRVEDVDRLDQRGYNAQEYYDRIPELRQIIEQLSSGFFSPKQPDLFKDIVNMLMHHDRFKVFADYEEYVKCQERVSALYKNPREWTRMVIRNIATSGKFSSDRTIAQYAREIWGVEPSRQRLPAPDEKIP
Set-up: method as in PMID 26713107. The settings on record: cited from earlier work.

Assay [2] addresses T1, rabbit muscle glycogen phosphorylase b (rmGPb). Nature of the assay: Glycogen phosphorylase binding assay (enzyme kinetics in the direction of glycogen synthesis). Format: biochemical. Here is the method:
The determined IC50 values are shown in Table 1, together with the previously determined Ki value for benchmark compound 1. […] Towards understanding the observed potencies, extensive computations on the bound and unbound states of the ligands were performed.
Enzyme activity was assayed into the direction of glycogen synthesis as previously presented. Kinetic data were collected using the muscle phosphorylase b (dephosphorylated, GPb) isoform. Kinetic data for the inhibition of GPb by the compounds were obtained in the presence of 10 μg/mL enzyme, varying concentrations of α-D-glucose-1-phosphate (4–40 mM), constant concentration (1%) of glycogen and AMP (1 mM). Enzymatic activities were presented in the form of a double-reciprocal plot (Lineweaver-Burk). The plots were analysed by a non-linear data analysis program. The inhibitor constants (Ki) were determined by secondary plots, replotting the slopes from the Lineweaver-Burk plot against the inhibitor concentrations. The means of standard errors for all calculated kinetic parameters averaged to less than 10% [48, 49].

Like-named read-outs stand apart in the source and are kept apart here.

Results on 3 compounds are retold here after article PMC10095824, “Design and Synthesis of 3-(β-D-Glucopyranosyl)-4-amino/4-guanidino Pyrazole Derivatives and Analysis of Their Glycogen Phosphorylase Inhibitory Potential” (Molecules, 2023).

As to `OC[C@H]1O[C@@H](c2cc(-c3ccccc3)n[nH]2)[C@H](O)[C@@H](O)[C@@H]1O` [Compound 2], the IC50 in assay [1] was 850 µM.
For the compound `Nc1c([C@@H]2O[C@H](CO)[C@@H](O)[C@H](O)[C@H]2O)n[nH]c1-c1ccccc1` [Compound 3, 4-Amino-3-(β-D -glucopyranosyl)-5-phenyl-1H-pyrazole], the IC50 in assay [2] (rmGPb) stood at 565 µM.
With `N=C(N)Nc1c([C@@H]2O[C@H](CO)[C@@H](O)[C@H](O)[C@H]2O)n[nH]c1-c1ccccc1` [Compound 4, 3-(β-D -Glucopyranosyl)-4-guanidino-5-phenyl-1H-pyrazole], the “inhibition of rmGPb” value in assay [2] (at 625 µM concentration, 625 µM) is on record as “no inhibition at 625 µM”.
